# Measurements: patent US20140294763A1, “PEPTIDOMIMETIC PROTEASE INHIBITORS” (priority 2000, published 2014)
# Values joined by “and” are separate entries in the source; they are usually repeats but may differ in a detail not shown here. Identical values can stand only once. Like-named read-outs stand apart in the source and are kept apart here.
# Tests used:
# [1] = test system: HCV subgenomic RNA replicon in Huh7 cells; assay: HCV subgenomic RNA replicon assay (Replicon Assay), TaqMan RT-PCR of replicon RNA after 48 h treatment; type: cell-based, hepatitis C virus (HCV); details: for Inhibition of replicon RNA accumulation: 48 hour treatment
# Description: The Replicon Assay measures the amount of HCV subgenomic RNA (replicon RNA) remaining in replicon cells (Lohman et al. Science 285:110-113 (1999)) after two days of drug treatment relative to the amount of replicon RNA in untreated cells. In this assay, the potency of compounds as HCV antiviral drugs is directly proportional to the level of inhibition of replicon RNA accumulation.
# The Replicon Assay employing a cell line containing the self-replicating HCV subgenomic RNA (replicon) is described in Lohmann et al. Science 285:110-113 (1999). The Genbank accession number for the sequence of the replicon used in the experiments described herein is listed in this reference as AJ242654. This paper discloses methods for in vitro transcription of RNA from the replicon cDNA, transfection of the replicon RNA into Huh7 cells by electroporation, and selection of cells containing the replicon RNA using the antibiotic G418. Huh7 cells are a hepatoma cell line obtained from Dr. William Mason at Fox Chase Cancer Research Center (Philadelphia). These cells are publicly available from Fox Chase, and have been extensively described in the scientific literature (Nakabayashi at al. Cancer Res. 42:3858-3863 (1982)). In the experiments described herein, all of the template DNA is removed from the in vitro transcribed replicon RNA preparation prior to electroporation of this RNA into Huh7 cells by multiple treatment with DNase (three sequential treatments).
# The Replicon Assay is performed as described in detail below. Briefly, Replicon cells are placed in 96 well trays at a density of 10,000 cells per well and incubated 37° C. The cells are incubated in DMEM ([…]) supplemented with 10% fetal bovine serum, glutamine, nonessential amino acids, and the antibiotic G418 (0.25 mg/ml). […] Each compound is tested at six to eight different concentrations. […] Each HCV serine protease inhibitor concentration is tested without any added interferon, as well as with the addition of six to eight different interferon doses. Similarly, interferon is tested without any added HCV serine protease inhibitor. After a 48-hour incubation with the compounds, the medium is removed from the plates, and total cellular RNA is extracted from the cells using the RNeasy-96 kit manufactured by Qiagen Inc. (Valencia, Calif.). This RNA is then analyzed by quantitative RT-PCR, or TaqMan® (Applied Biosystems, Foster City Calif.). The TaqMan® RT-PCR target is the neomycin resistance gene in the replicon RNA. The plates are configured so that there are 5 replicates of each drug treatment sample, and 16 replicates of the untreated samples. This permits greater statistical confidence in the quantitative RT-PCR data.
# Analysis of the Replicon Assay data yields two values that are useful in assessing the potency of potential HCV antiviral agents. At each compound concentration tested, the level of inhibition in replicon RNA accumulation caused by the compound during two days of treatment relative to the amount of replicon RNA in untreated cells is determined. This is reported as percent inhibition. […] The IC50 is the value used to rank individual compounds tested in this assay based on their potency as HCV antiviral agents. Simple IC50 determinations are inadequate to assess the utility of compounds used in combination.
# The Replicon Assay is used to measure the capacity of potential HCV antiviral compounds to inhibit the accumulation of a HCV subgenomic RNA replicon molecule in a Huh7 cell line (Lohmann et al. Replication of Subgenomic Hepatitis C Virus RNAs in a Hepatoma Cell Line. Science 285, 110-113 (1999)).
# [2] = XTT metabolic assay to determine replicon cell viability; details: human
# Description: (§1) Inflamation Research. […] It is assumed that the level of GAPDH mRNA, which is a constitutively expressed housekeeping gene, is the same in all viable cells. […] Thus, it is postulated, as done by others using TaqMan® technology to determine the levels of particular mRNAs in human cells, that GAPDH mRNA levels are proportional to viable cell numbers (VCN) in any given sample, with the relationship of VCN=2^̂(40−CtGAPDH mRNA). The VCN is computed for each of the Replicon Assay sample wells, and then we divide the HCV Replicon RNA copy number for a specific well by the VCN for that well. Once computed, this ratio is used instead of the HCV copy number to compute inhibition (“Avg. Inh using ratio”; FIG. 14A). […] In the Replicon Assay, it is assumed that the measured inhibition of HCV RNA replicon accumulation is the sum of the actual inhibition of HCV RNA replicon accumulation and the apparent inhibition of HCV RNA replicon accumulation due to cytoxicity. […] Thus, the true anti-HCV activity of a compound in the Replicon Assay corrected for general cytotoxicity can be estimated by dividing the number of HCV replicon RNA molecules measured in each sample by the VCN, thus normalizing to the number of viable cells in each sample. […] In FIG. 14A, “Avg.
# [3] = test system: replicon cells (glyceraldehyde-3-phosphate dehydrogenase (GAPDH) mRNA levels); assay: TaqMan quantitative RT-PCR of GAPDH mRNA levels in treated versus untreated replicon cells (cytotoxicity measure); details: treated versus untreated cells in the Replicon Assay
# Description: as §1
# [4] = Hepatitis C virus, Huh-7, 48 h, read-out: IC50 HSPI, antiviral compound used individually, HCV replicon RNA accumulation, 48 h, response-surface fit (Ribavirin corrected for cytotoxicity)
# [5] = read-out: IC50 HSPI, antiviral compound used individually, HCV replicon RNA accumulation, 48 h, response-surface fit (Ribavirin corrected for cytotoxicity)
smiles,measurement,setting,value
CCC[C@H](NC(=O)[C@@H]1[C@H]2CCC[C@H]2CN1C(=O)[C@@H](NC(=O)[C@@H](NC(=O)c1cnccn1)C1CCCCC1)C(C)(C)C)C(=O)C(=O)NC1CC1 [Compound CU],Inhibition of replicon RNA accumulation,[1]; Compound CU 0.0123 μM alone (interferon-alpha 2B 0 U),5%
same,Inhibition of replicon RNA accumulation,[1]; Compound CU 0.0370 μM alone (interferon-alpha 2B 0 U),8%
same,Inhibition of replicon RNA accumulation,[1]; Compound CU 0.1111 μM alone (interferon-alpha 2B 0 U),11%
same,Inhibition of replicon RNA accumulation,[1]; Compound CU 0.333 μM alone (interferon-alpha 2B 0 U),28%
same,Inhibition of replicon RNA accumulation,[1]; Compound CU 1 μM alone (interferon-alpha 2B 0 U),88%
same,Inhibition of replicon RNA accumulation,[1]; Compound CU 3 μM alone (interferon-alpha 2B 0 U),98%
same,IC50,"[1]; Hepatitis C virus, Huh-7, 48 h, Compound CU as single drug treatment, initial experiment, replicon RNA accumulation 48 h",480 nM
same,IC50,[1]; [4],469 nM
same,IC50,[1]; [5],446 nM and 587 nM and 633 nM and 605 nM and 466 nM
same,CC50,[2]; HCV replicon cells (Huh7),64700 nM
CCC[C@H](NC(=O)C1[C@H]2CCC[C@H]2CN1C(=O)[C@@H](NC(=O)[C@@H](NC(=O)[C@@H](C)NC(=O)OC)C1CCCCC1)C(C)(C)C)C(=O)C(=O)NC1CC1 (stereo partly shown) [Compound EC],IC50,[1]; [4],384 nM
same,IC50,[1]; [5],312 nM
same,CC50,[2]; HCV replicon cells (Huh7),> 50000 nM
"NC(=O)c1ncn([C@@H]2O[C@H](CO)[C@@H](O)[C@H]2O)n1 [Ribavirin, reference compound]",IC50,[1]; [4],145000 nM
same,IC50,"[1]; Hepatitis C virus, Huh-7, read-out: uncorrected IC50 (Avg. Inh original), not corrected for cytotoxicity",~80000 nM
same,reduction of accumulation of HCV replicon RNA (in words),[1]; compound alone,marginally effective
same,"cytotoxicity (GAPDH mRNA levels, TaqMan RT-PCR)",[3],significant Ribavirin-induced cytotoxicity
CCC[C@@H](NC(=O)[C@@H]1[C@H]2CCCC2CN1C(=O)[C@@H](NC(=O)[C@H](NC(=O)c1cnccn1)C1CCCCC1)[C@H](C)CC)C(=O)C(=O)NC1CC1 (stereo partly shown) [Compound EP],IC50,[1]; [4],426 nM
same,CC50,[2],> 10000 nM
